# Test results published in patent US20100010219A1, “METHOD FOR PRODUCING PYRROLIDINE COMPOUND” (JAPAN TOBACCO INC., priority 2006, published 2010).
# Where a name gives a salt, the structure may show the parent alone.
# Target: T1, human HSD-1 (recombinant HSD-1) (Homo sapiens, UniProt P28845)
# T1 construct: made in house
# Assay: HSD-1 activity inhibitory action in vitro (SPA, conversion of cortisone to cortisol)
# Type: biochemical
# Conditions: recombinant human HSD-1 expressed using baculovirus system; 10 nM 3H cortisone, 500 μM NADPH; room temperature 90 to 120 min; read-out: hHSD1 (IC50 (nM))
# T1 sequence (P28845 whole entry): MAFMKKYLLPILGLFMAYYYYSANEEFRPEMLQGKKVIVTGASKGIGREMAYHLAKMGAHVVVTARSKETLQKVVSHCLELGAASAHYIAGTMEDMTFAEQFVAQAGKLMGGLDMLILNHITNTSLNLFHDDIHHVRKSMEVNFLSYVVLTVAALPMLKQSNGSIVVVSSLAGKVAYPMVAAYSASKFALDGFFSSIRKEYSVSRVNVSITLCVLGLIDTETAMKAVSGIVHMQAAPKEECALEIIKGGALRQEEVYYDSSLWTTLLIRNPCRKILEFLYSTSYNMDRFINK
row,IC50 [nM],Compound
1,< 30,"O=C(NCCN1CCCCC1)N1CCC(n2ncc(C(=O)N3CC[C@@H](c4ccccc4C(F)(F)F)C3)c2C2CC2)CC1 [Example 17, 1-{5-cyclopropyl-1-[1-(2-piperidin-1-yl-ethylcarbamoyl)piperidin-4-yl]-1H-pyrazole-4-carbonyl}-[(S)-3-(2-trifluoromethylphenyl)]pyrrolidine hydrochloride]"
2,< 30,"O=C(Nc1ccccc1F)N1CCC(n2ncc(C(=O)N3CCC(c4ccccc4OC(F)(F)F)C3)c2C2CC2)CC1 (stereo not shown) [Example 140, 1-{5-cyclopropyl-1-[1-(2-fluorophenylcarbamoyl)piperidin-4-yl]-1H-pyrazole-4-carbonyl}-3-(2-trifluoromethoxyphenyl)pyrrolidine]"
3,< 30,"CC1(c2c(C(=O)N3CCC(c4ccccc4C(F)(F)F)C3)cnn2[C@H]2CC[C@@H](C(=O)O)CC2)CC1 (stereo partly drawn) [Example 191, cis-4-{5-(1-methylcyclopropyl)-4-[3-(2-trifluoromethylphenyl)pyrrolidine-1-carbonyl]pyrazol-1-yl}cyclohexanecarboxylic acid]"
4,< 30,"O=C1CC[C@@H](C(=O)N2CCC(n3ncc(C(=O)N4CC[C@@H](c5ccccc5C(F)(F)F)C4)c3C3CC3)CC2)N1 [Example 74, 1-(5-cyclopropyl-1-{1-[(S)-5-oxopyrrolidine-2-carbonyl]piperidin-4-yl}-1H-pyrazole-4-carbonyl)-[(S)-3-(2-trifluoromethylphenyl)]pyrrolidine]"
5,< 30,"O=C(Nc1ccccc1CO)N1CCC(n2ncc(C(=O)N3CC[C@@H](c4ccccc4C(F)(F)F)C3)c2C2CC2)CC1 [Example 6, 1-{5-cyclopropyl-1-[1-(2-hydroxymethylphenylcarbamoyl)piperidin-4-yl]-1H-pyrazole-4-carbonyl}-[(S)-3-(2-trifluoromethylphenyl)]pyrrolidine]"
6,< 30,"O=C(c1cnn(C2CCN(S(=O)(=O)CC(F)(F)F)CC2)c1C1CC1)N1CC[C@@H](c2ccccc2C(F)(F)F)C1 [Example 109, 1-{5-cyclopropyl-1-[1-(2,2,2-trifluoroethanesulfonyl)piperidin-4-yl]-1H-pyrazole-4-carbonyl}-[(S)-3-(2-trifluoromethylphenyl)]pyrrolidine]"
7,< 30,"CC(=O)Nc1ccc(N2CCC(n3ncc(C(=O)N4CCC(c5ccccc5C(F)(F)F)C4)c3C3CC3)CC2)cc1 (stereo not shown) [Example 182, 1-{1-[1-(4-acetylaminophenyl)piperidin-4-yl]-5-cyclopropyl-1H-pyrazole-4-carbonyl}-3-(2-trifluoromethylphenyl)pyrrolidine]"
8,< 30,"CC(C)(CC(=O)N1CCC(n2ncc(C(=O)N3CCC(c4ccccc4C(F)(F)F)C3)c2C2CC2)CC1)C(=O)O (stereo not shown) [Example 154, 1-{1-[1-(3-carboxy-3-methyl-butyryl)piperidin-4-yl]-5-cyclopropyl-1H-pyrazole-4-carbonyl}-3-(2-trifluoromethylphenyl)pyrrolidine]"
9,< 30,"CC1(c2c(C(=O)N3CCC(CO)(c4ccc(F)cc4)C3)cnn2C2CCN(c3ncccn3)CC2)CC1 (single isomer, unassigned; (+)) [Example 128, (+)-3-(4-fluorophenyl)-3-hydroxymethyl-1-{5-(1-methylcyclopropyl)-1-[1-(pyrimidin-2-yl)piperidin-4-yl]-1H-pyrazole-4-carbonyl}pyrrolidine hydrochloride]"
10,< 30,"CN(C)C1CCN(C(=O)N2CCC(n3ncc(C(=O)N4CC[C@@H](c5ccccc5C(F)(F)F)C4)c3C3CC3)CC2)C1 (stereo partly drawn) [Example 41, 1-{5-cyclopropyl-1-[1-(3-dimethylaminopyrrolidine-1-carbonyl)piperidin-4-yl]-1H-pyrazole-4-carbonyl}-[(S)-3-(2-trifluoromethylphenyl)]pyrrolidine hydrochloride]"
11,< 30,"O=C(c1cnn(C2CCN(c3ccc(N4CCOC4=O)cc3)CC2)c1C1CC1)N1CCC(c2ccccc2C(F)(F)F)C1 (stereo not shown) [Example 169, 1-(5-cyclopropyl-1-{1-[4-(2-oxooxazolidin-3-yl)phenyl]piperidin-4-yl}-1H-pyrazole-4-carbonyl)-3-(2-trifluoromethylphenyl)pyrrolidine]"
12,< 30,"O=C(c1cnn(C2CCNCC2)c1C1CC1)N1CC[C@@H](c2ccccc2C(F)(F)F)C1 [Example 2, 1-[5-cyclopropyl-1-(piperidin-4-yl)-1H-pyrazole-4-carbonyl]-[(S)-3-(2-trifluoromethylphenyl)]pyrrolidine hydrochloride]"
13,< 30,"C/C(=N\C#N)N1CCC(n2ncc(C(=O)N3CC[C@@H](c4ccccc4C(F)(F)F)C3)c2C2CC2)CC1 [Example 110, 1-{1-[1-(1-cyanoiminoethyl)piperidin-4-yl]-5-cyclopropyl-1H-pyrazole-4-carbonyl}-[(S)-3-(2-trifluoromethylphenyl)]pyrrolidine]"
14,< 30,"CN(C)CCOC(=O)N1CCC(n2ncc(C(=O)N3CC[C@@H](c4ccccc4C(F)(F)F)C3)c2C2CC2)CC1 [Example 59, 1-{5-cyclopropyl-1-[1-(2-dimethylaminoethoxycarbonyl)piperidin-4-yl]-1H-pyrazole-4-carbonyl}-[(S)-3-(2-trifluoromethylphenyl)]pyrrolidine hydrochloride]"
15,< 30,"O=C(NS(=O)(=O)c1ccccc1)N1CCC(n2ncc(C(=O)N3CC[C@@H](c4ccccc4C(F)(F)F)C3)c2C2CC2)CC1 [Example 55, 1-[1-(1-benzenesulfonylaminocarbonylpiperidin-4-yl)-5-cyclopropyl-1H-pyrazole-4-carbonyl]-[(S)-3-(2-trifluoromethylphenyl)]pyrrolidine]"
16,< 30,"NC(=O)CCC(=O)N1CCC(n2ncc(C(=O)N3CC[C@@H](c4ccccc4C(F)(F)F)C3)c2C2CC2)CC1 [Example 93, 1-{1-[1-(3-carbamoylpropionyl)piperidin-4-yl]-5-cyclopropyl-1H-pyrazole-4-carbonyl}-[(S)-3-(2-trifluoromethylphenyl)]pyrrolidine]"
17,< 30,"CC(C)(CN1CCC(n2ncc(C(=O)N3CC[C@@H](c4ccccc4C(F)(F)F)C3)c2C2CC2)CC1)C(N)=O [Example 105, 1-{1-[1-(2-carbamoyl-2-methylpropyl)piperidin-4-yl]-5-cyclopropyl-1H-pyrazole-4-carbonyl}-[(S)-3-(2-trifluoromethylphenyl)]pyrrolidine hydrochloride]"
18,< 30,"COC(=O)c1ccccc1C1CCN(C(=O)c2cnn(C3CCN(c4ncccn4)CC3)c2C2(C)CC2)C1 (stereo not shown) [Example 179, methyl 2-{1-[5-(1-methylcyclopropyl)-1-(1-pyrimidin-2-ylpiperidin-4-yl)-1H-pyrazole-4-carbonyl]pyrrolidin-3-yl}benzoate]"
19,< 30,"O=C(c1cnn(C2CCN(c3cnccn3)CC2)c1C1CC1)N1CC[C@@H](c2ccccc2C(F)(F)F)C1 [Example 129, 1-[5-cyclopropyl-1-(1-pyrazin-2-ylpiperidin-4-yl)-1H-pyrazole-4-carbonyl]-[(S)-3-(2-trifluoromethylphenyl)]pyrrolidine hydrochloride]"
20,< 30,CC1(c2c(C(=O)N3CCC(c4cccnc4)C3)cnn2C2CCN(C(=O)N3CCOc4ccccc43)CC2)CC1 (stereo not shown) [Example 149]
21,< 30,"CN/C(=N\C#N)N1CCC(n2ncc(C(=O)N3CC[C@@H](c4ccccc4C(F)(F)F)C3)c2C2CC2)CC1 [Example 111, 1-(1-{1-[cyanoimino(methylamino)methyl]piperidin-4-yl}-5-cyclopropyl-1H-pyrazole-4-carbonyl)-[(S)-3-(2-trifluoromethylphenyl)]pyrrolidine]"
22,< 30,"O=C(NCC(=O)N1CCC(n2ncc(C(=O)N3CC[C@@H](c4ccccc4C(F)(F)F)C3)c2C2CC2)CC1)C1CC1 [Example 88, 1-{1-[1-(2-cyclopropanecarbonylaminoacetyl)piperidin-4-yl]-5-cyclopropyl-1H-pyrazole-4-carbonyl}-[(S)-3-(2-trifluoromethylphenyl)]pyrrolidine]"
23,< 30,"CC(C(N)=O)N1CCC(n2ncc(C(=O)N3CC[C@@H](c4ccccc4C(F)(F)F)C3)c2C2CC2)CC1 (stereo partly drawn) [Example 103, 1-{1-[1-(1-carbamoylethyl)piperidin-4-yl]-5-cyclopropyl-1H-pyrazole-4-carbonyl}-[(S)-3-(2-trifluoromethylphenyl)]pyrrolidine hydrochloride]"
24,< 30,"O=C(c1cnn(C2CCN(c3n[nH]c(C(F)(F)F)n3)CC2)c1C1CC1)N1CC[C@@H](c2ccccc2C(F)(F)F)C1 [Example 120, 1-{5-cyclopropyl-1-[1-(5-trifluoromethyl-4H-[1,2,4]triazol-3-yl)piperidin-4-yl]-1H-pyrazole-4-carbonyl}-[(S)-3-(2-trifluoromethylphenyl)]pyrrolidine hydrochloride]"
25,< 30,"N#C/N=C(\N)N1CCC(n2ncc(C(=O)N3CC[C@@H](c4ccccc4C(F)(F)F)C3)c2C2CC2)CC1 [Example 112, 1-{1-[1-(N-cyanocarbamimidoyl)piperidin-4-yl]-5-cyclopropyl-1H-pyrazole-4-carbonyl}-[(S)-3-(2-trifluoromethylphenyl)]pyrrolidine]"
26,< 30,"C[C@@H]1CN(C(=O)c2cnn(C3CCN(c4ncccn4)CC3)c2C2(C)CC2)C[C@H]1c1ccccc1 (relative stereo) [Example 177, {(3S*,4R*)-3-methyl-1-{5-(1-methylcyclopropyl)-1-[1-(pyrimidin-2-yl)piperidin-4-yl]-1H-pyrazole-4-carbonyl}-4-phenylpyrrolidine hydrochloride]"
27,< 30,"NC1CCN(C(=O)N2CCC(n3ncc(C(=O)N4CC[C@@H](c5ccccc5C(F)(F)F)C4)c3C3CC3)CC2)C1 (stereo partly drawn) [Example 36, 1-{1-[1-(3-aminopyrrolidine-1-carbonyl)piperidin-4-yl]-5-cyclopropyl-1H-pyrazole-4-carbonyl}-[(S)-3-(2-trifluoromethylphenyl)]pyrrolidine hydrochloride]"

row,Compound,IC50 [nM]
1,"CC(=O)OCCC1(c2ccc(F)cc2)CCN(C(=O)c2cnn(C3CCN(c4ncccn4)CC3)c2C2(C)CC2)C1 (stereo not shown) [Example 176, 3-(2-acetoxyethyl)-3-(4-fluorophenyl)-1-{5-(1-methylcyclopropyl)-1-[1-(pyrimidin-2-yl)piperidin-4-yl]-1H-pyrazole-4-carbonyl}pyrrolidine hydrochloride]",< 30
